Tests used:
Assay type in all cases: cell-based, human
[1] = system: PC-3 prostate adenocarcinoma cell line; experiment: MTT cell viability assay, PC-3
Method: (§1) Caco-2, MCF-7, PC-3, and NHDF cell lines were obtained from the American Type Culture Collection (ATCC) and maintained in 75 cm^2 culture flasks in a humidified atmosphere at 37 °C with 5% carbon dioxide using a LEEC Culture Safe Precision CO2 Incubator. The culture media was renewed every two to three days. The NHDF cell line was cultured in Roswell Park Memorial Institute (RPMI) medium supplemented with 10% of inactivated fetal bovine serum (FBS), 2 mM of L-glutamine, 10 mM of 4-(2-hydroxyethyl)-1-piperazineethanesulfonic acid (HEPES), 1 mM of sodium pyruvate, and 1% of antibiotic/antimycotic mixture (Ab; 10,000 U/mL of penicillin G, […] of streptomycin, and 25 µg/mL of amphotericin B). The PC-3 cell line was also cultured in RPMI 1640 medium supplemented with 10% inactivated FBS and 1% of an antibiotic mixture (Sp; 10,000 U/mL of penicillin G and […] of streptomycin). The Caco-2 and MCF-7 cell lines were grown in Dulbecco’s Modified Eagle Medium (DMEM). Caco-2 was supplemented with 20% of inactivated FBS and 1% of Sp. On the other hand, the MCF-7 medium was complemented with 10% of inactivated FBS and 1% of Ab. All manipulations were performed in a Labculture Class II A2 Biological Safety Cabinet.
(§2) After the near confluency of cultures, cells were detached with a solution of 0.125 g/L trypsin and 0.02 g/L ethylenediaminetetracetic acid (EDTA), counted using the trypan blue method, resuspended, and seeded in 96-well culture plates (100 µL, 2 × 10^4 cells/mL). Following 48 h of adherence, cells were treated with the test solutions and incubated for 72 h. This incubation, as well as the solution manipulations, were performed in an environment protected from light. After the incubation, the medium was replaced with a fresh incomplete culture medium (without FBS and Ab or Sp) and MTT solution (5 mg/mL in phosphate buffer saline (PBS)). After additional incubation for 4 h, the MTT medium was removed, formazan crystals were dissolved in DMSO, and the optical density of each well was measured at 570 nm using a microplate spectrophotometer Bio-Rad xMark. Untreated cells were used as a negative control and 5-FU as the positive control. The results were expressed as the relative cell proliferation relative to the negative control cells. […] To determine the IC50 values, Caco-2, MCF-7, PC-3, and NHDF cells were exposed to increasing concentrations between 0.001 and 100 μM.

Caco-2 cells [2] = experiment: Cell cycle distribution by propidium iodide staining and flow cytometry; conditions: dye 12 and 5-FU 10 µM 72 h, sorbitol 600 mM 24 h, versus untreated cells
Method: The apoptosis occurrence and influence of the dye 12 on the cell cycle were evaluated using propidium iodide (PI) staining and flow cytometry, as described by Riccardi and Nicolleti. After the near confluency of the culture, trypsinisation, and counting, Caco-2 cells were seeded (2 mL, 3 × 10^4 cells/mL) in 6-well plates. After 48 h of adherence, the cells were treated with the test solutions (3 mL and 5 mL for negative control) and incubated for 72 h. Untreated cells were used as the negative control, and sorbitol and 5-FU [56] were used as positive controls for the apoptosis and cell cycle distribution studies, respectively. After incubation, the supernatant was collected and the cells were washed with PBS and combined with the cells harvested using the trypsin treatment. This cell suspension was maintained on ice and centrifugated, and then the pellet was resuspended in 0.5 mL of PBS. The cells were fixed by adding 4.5 mL of 70% ethanol cooled at −20 °C and were stored at the same temperature. For the cytometry analysis, PBS was added to the fixed cells before centrifugation, and then the ethanolic supernatant was removed. The pellet was resuspended in 0.5 mL of PBS and 0.5 mL of DNA extraction (192 mL of 0.2 M sodium phosphate and 8 mL of […], pH 7.8) was added. After incubation for 5 min, the cells were centrifuged, the supernatant was removed, and the pellet resuspended in 0.3 mL of staining solution (20 µg/mL of PI and 0.2 mg/mL of DNase-free RNase in PBS). Using a FACSCalibur flow cytometer and the 488 nm laser line, a minimum of 20,000 events were recorded. Acquisition and apoptosis analysis was performed using BD CellQuestTM Pro 4.0.2 Software. Cell cycle analysis was performed with ModFit LT 5.0.9 software. To exclude debris and necrotic cells, events with a lower diameter (forward scatter; FCS) and reduced PI fluorescence (FL3) than the hypodiploid apoptotic cells were eliminated. Two independent experiments were performed.

Caco-2 cells [3] = experiment: Morphological analysis by inverted microscopy; conditions: 72 h, 20 or 40× magnification, versus untreated cells
Method: After the near confluency of the culture, trypsinisation, and counting, Caco-2 cells were seeded (3 mL; 3 × 10^4 cells/mL) in 35 mm cell culture dishes with treatment for the tissue culture. Following 48 h of adherence, the cells were treated with the test solutions and incubated for 72 h in an environment protected from light. At every 24 h, cellular morphology was verified in an Olympus CKX41 SF inverted microscope with a 10, 20, or 40× objective, and the analysis was based on comparing the cells with and without treatment. Cell imaging was captured using a DC6V Olympus digital camera coupled to the microscope.

[4] = system: Caco-2 colorectal adenocarcinoma cell line; experiment: MTT cell viability assay, Caco-2; conditions: Homo sapiens, Caco-2, 72 h
Method: as §1, §2

[5] = MTT cell viability assay, Caco-2; conditions: human, Caco-2, Caco-2 versus NHDF, 72 h; read-out: SI Caco-2 (selectivity index, cancer versus NHDF)
Method: as §1, §2

For `CN1C(=Cc2oc3ccccc3[n+]2C)Oc2ccccc21.Cc1ccc(S(=O)(=O)[O-])cc1` [Dye 12, 3-Methyl-2-((3-methylbenzo[d]oxazol-2(3H)-ylidene)methyl)benzo[d]oxazol-3-ium 4-methylbenzenesulfonate], the viability at 10 µM ([1]; Homo sapiens, 72 h, single concentration of 10 µM, 72 h, mean ± SD, read-out: cell viability percentage in relation with control, PC-3) was 9.33 ± 4.28%, the IC50 ([1]; Homo sapiens, 72 h of incubation, MTT, protected from light) was 4530 nM and the “SI PC-3 (selectivity index, cancer versus NHDF)” value ([1]; PC-3 versus NHDF, 72 h) was 3.1. The “effect on cell cycle distribution” value (Caco-2 cells [2]) was “notorious increase in the number of cells in the G0/G1 phase”, the “morphological changes of Caco-2 cells” value (Caco-2 cells [3]; 1 µM) was “no visible differences” and the “morphological changes of Caco-2 cells” value (Caco-2 cells [3]; 10 µM) was “evident contraction”. The IC50 ([4]; 72 h of incubation, MTT, protected from light) was 670 nM, the viability at 10 µM ([4]; single concentration of 10 µM, 72 h, mean ± SD, read-out: cell viability percentage in relation with control, Caco-2) was 10 ± 0.93% and the selectivity ratio at 72 h [5] was 20.9.

From article PMC9503608, “An Insight into Symmetrical Cyanine Dyes as Promising Selective Antiproliferative Agents in Caco-2 Colorectal Cancer Cells” (Molecules, 2022)
